According to PubChem BioAssay AID504675 (Southern Research Specialized Biocontainment Screening …, 2011):

tested on: E. coli UTI89 K1 capsule, phage K1F lysis, OD600; experiment: inhibition of K1F phage lysis of E. coli UTI89, dose response, capsule biogenesis inhibitor project, strain UTI89, C7 control, set 3 (AID 504675); conditions: measured here: cytotoxicity test

Row | Structure (SMILES) | CC50 [µM]
1 | N=c1n(CCN2CCCC2)c2ccccc2n1CC(O)c1ccc(Cl)c(Cl)c1 (stereo not given) | 9.38
2 | COc1ccc2nc(NC(=O)c3ccccc3OC)sc2c1 | 66.8
3 | COc1ccc(C(=O)Nc2nc3ccc(OC)cc3s2)cc1 | > 300
4 | COc1ccc2nc(NC(=O)c3cccs3)sc2c1 | 104
5 | O=C(O)c1cc(-c2cccc(F)c2)nc2ccccc12 | > 300
6 | COc1ccc2nc(NC(=O)c3ccco3)sc2c1 | 93.4
7 | COc1ccc2nc(NC(=O)c3ccc(F)cc3)sc2c1 | 21.7
8 | COc1ccc2nc(NC(=O)c3ccccc3)sc2c1 | 45.4
9 | COc1cccc(C(=O)Nc2nc3ccc(OC)cc3s2)c1 | 23.4
10 | COc1cccc(-c2cc(C(=O)O)c3ccccc3n2)c1 | 78.3
